Results reported in ChEMBL document CHEMBL1159014, “Isolation of potential cancer chemopreventive agents from Eriodictyon californicum” (1992).

Tests used:
[1] = Chemopreventive activity in Syrian hamster embryo cells assessed as inhibition of metabolism of [3H]benzo(a)pyrene to water-soluble metabolites after 24 hrs at 20 ug/ml relative to control; assay type: functional; conditions: Mesocricetus auratus, read-out: INH
[2] = Chemopreventive activity in Syrian hamster embryo cells assessed as inhibition of metabolism of [3H]benzo(a)pyrene to water-soluble metabolites after 24 hrs at 5 ug/ml relative to control; assay type: functional; conditions: Mesocricetus auratus, read-out: INH
[3] = Chemopreventive activity in Syrian hamster embryo cells assessed as inhibition of metabolism of [3H]benzo(a)pyrene to water-soluble metabolites after 24 hrs at 10 ug/ml relative to control; assay type: functional; conditions: Mesocricetus auratus, read-out: INH
[4] = Chemopreventive activity in Syrian hamster embryo cells assessed as pmol of [3H]benzo(a)pyrene binding per mg of DNA at 10 ug/ml by [35S]phosphorothote post-labeling-HPLC; assay type: functional, Mesocricetus auratus
[5] = species: Mesocricetus auratus; experiment: Chemopreventive activity in Syrian hamster embryo cells assessed as inhibition of [3H]benzo(a)pyrene-DNA binding at 10 ug/ml by [35S]phosphorothote post-labeling-HPLC; assay type: functional
[6] = Chemopreventive activity in Syrian hamster embryo cells assessed as pmol of (+)-anti-benzo(a)pyrene-7,8-diol-9,10-epoxide -dGuo adduct per mg of DNA at 10 ug/ml by [35S]phosphorothote post-labeling-HPLC; assay type: functional, Mesocricetus auratus

SMILES | inhibition at 20 µg/mL [1] [%] | inhibition at 5 µg/mL [2] [%] | inhibition at 10 µg/mL [3] [%] | Activity [4] [pmol] | inhibition [5] [%] | Activity [6] [pmol]
COc1cc(C2CC(=O)c3c(cc(O)c(OC)c3O)O2)ccc1O (stereo unspecified) | 32 | 9 | 19 | – | – | –
COc1cc([C@@H]2CC(=O)c3c(O)cc(O)cc3O2)ccc1OC(=O)C(C)C | 52 | – | – | – | – | –
COc1cc2c(c(O)c1OC)C(=O)CC(c1ccc(O)cc1)O2 (stereo unspecified) | 36 | – | – | – | – | –
O=c1cc(-c2ccccc2)oc2cc(O)cc(O)c12 [CHRYSIN] | 86 | 14 | 44 | – | – | –
COc1cc(-c2cc(=O)c3c(O)cc(O)cc3o2)ccc1O [CHRYSOERIOL] | 96 | 60 | 85 | 44.9 | 32 | 22.5
COc1cc2oc(-c3ccc(O)cc3)cc(=O)c2c(O)c1OC [CIRSIMARITIN] | 92 | 69 | 85 | 19.4 | 71 | 11.5
O=C1C[C@@H](c2ccc(O)c(O)c2)Oc2cc(O)cc(O)c21 [ERIODICTYOL] | 55 | 16 | 40 | – | – | –
COc1c(O)cc2oc(-c3ccc(O)cc3)cc(=O)c2c1O [HISPIDULIN] | 92 | 18 | 75 | – | – | –
COc1cc([C@@H]2CC(=O)c3c(O)cc(O)cc3O2)ccc1O [HOMOERIODICTYOL] | 36 | – | – | – | – | –
O=C1C[C@@H](c2ccccc2)Oc2cc(O)cc(O)c21 [PINOCEMBRIN] | 66 | 8 | 29 | – | – | –
COc1cc(O)c2c(c1)O[C@H](c1ccc(O)cc1)CC2=O [SAKURANETIN] | 52 | – | – | – | – | –
